Data on eleven molecules can be found in PMC11430712, “The Endocannabinoid Peptide RVD-Hemopressin Is a TRPV1 Channel Blocker” (Biomolecules, 2024).

Entries after “also recorded” stand apart in the source; their conditions may differ. Peptide text beside a SMILES is read from it.

Data set [1] has as its system TRPV1 channel. Further details: method as in 4 sources, ref [12]; anandamide and 2-AG ref [13],[14],[15],[16] ||| ref [88],[89] = [88]; PMID 27281200; doi:10.1038/nature17964; 88. Gao Y. Cao E. Julius D. Cheng Y. TRPV1 structures in nanodiscs reveal mechanisms of ligand and lipid action Nature 2016 534 347 351 10.1038/nature17964 27281200 PMC4911334 || [89]; PMID 37117175; doi:10.1038/s41467-023-38162-9; 89. Neuberger A. Oda M. Nikolaev Y.A. Nadezhdin K.D. Gracheva E.O. Bagriantsev S.N. Sobolevsky A.I. Human TRPV1 structure and inhibition by the analgesic SB-366791 Nat. Commun. 2023 14 2451 10.1038/s4 ||| ref [90] = [90]; PMID 38698206; doi:10.1038/s41594-024-01299-2; 90. Arnold W.R. Mancino A. Moss F.R. Frost A. Julius D. Cheng Y. Structural basis of TRPV1 modulation by endogenous bioactive lipids Nat. Struct. Mol. Biol. 2024 1 9 10.1038/s41594-024-01299-2 3869820 ||| ref [67] = [67]; PMID 29117570; doi:10.1016/j.celrep.2017.10.063; 67. Nersesyan Y. Demirkhanyan L. Cabezas-Bratesco D. Oakes V. Kusuda R. Dawson T. Sun X. Cao C. Cohen A.M. Chelluboina B. Oxytocin Modulates Nociception as an Agonist of Pain-Sensing TRPV1 Cell Rep. 2. Conditions: cited from earlier work; for TRPV1 activation: capsaicin ref [12], anandamide and 2-AG ref [13],[14],[15],[16]; for TRPV1 channel state: vanilloid pocket, ref [90]. The source says:
The transient receptor potential (TRP) channels family involves several subfamilies, including the vanilloid (TRPVs) group. TRPV1, a member of the TRPV subfamily, is a non-selective cationic homotetramer channel. It is known to be activated by various stimuli, including temperature, capsaicin (the principal compound in chili peppers), and endocannabinoids such as anandamide (AEA) and 2-arachidonoylglycerol (2-AG). The TRPV1 channel protein is found in the central (CNS) and peripheral nervous system (PNS). In the CNS, TRPV1 is expressed in the prefrontal cort ... || Molecular dynamics (MD) simulations allow studying protein dynamics at an atomic level under physiological conditions, enhancing our understanding of various proteins, including ion channels like TRPV1 [82]. These simulations provide insight into their function, conformational changes, and interactions with different ligands.

For data set [2] the following is noted: individuals with osteoarthritis; ref [99]; cited from earlier work. The source says:
Capsaicin creams and patches have been used in the treatment of muscle pain, neuropathic pain, arthritis, and migraines. […] CNTX-4975 has been developed as a treatment option for pain in individuals with osteoarthritis.

In data set [3] the target is T1, human TRPV1 channel (Homo sapiens, UniProt Q8NER1).
T1 construct: host or cells: HEK293
The data set is described as follows: Whole-cell voltage-clamp recording of TRPV1 currents, HEK293 cells with human TRPV1-GFP. Format: cell-based. As to the method:
(§1) Dr. Alejandro Maureira, Universidad Católica del Maule, Chile, generously provided HEK293 cells. The cells were cultured in T75 flasks (Corning Inc., Corning, NY, USA) in a humidified atmosphere at 37 °C with 5% CO2 in Dulbecco’s Modified Eagle Medium (DMEM) with high glucose (Cytiva, Marlborough, MA, USA), supplemented with 10% fetal bovine serum (Cytiva, Marlborough, MA, USA) and a mixture of 100 IU/mL penicillin and 100 µg/mL streptomycin (Corning Inc., Corning, NY, USA) in a CO2CELL incubator (MMM Group, Munich, Germany). This procedure was used to maintain the cells for all of the experiments.
(§2) HEK293 cells were transfected with the human TRPV1 channel coupled to GFP in its C-terminus (TRPV1-GFP, catalog #: RG217653, Origene, Rockville, MD, USA). […] Transfections were conducted using Lipofectamine 3000 (Invitrogen, Waltham, MA, USA), according to the manufacturer’s instructions. Experimental protocols were performed 24 h post-transfection.
Untransfected and transfected HEK293 cells with the human TRPV1-GFP were recorded using a whole-cell voltage clamp. Cells were cultured in 15 mm round coverslips pretreated with 0.1 mg/mL poly-L-lysine (Gibco, Billings, MT, USA) and transfected with TRPV1-GFP plasmid. TRPV1-GFP-positive cells were identified using a 405 nm LED light in a Nikon Eclipse Ts2 inverted microscope. Borosilicate pipettes (nº 1B150F-4, World Precision Instruments, Sarasota, FL, USA) of 2.8’5 MΩ were used. Pipettes were pulled with a P-97 Micropipette Puller (Sutter Instruments, Novato, CA, USA). The extracellular solution contained (in mM) 140 NaCl, 5 KCl, 2 CaCl2, 1 MgCl2, 10 HEPES, and 6 glucose at pH 7.4. The internal solution contained (in mM) 140 CsCl, 4 MgCl2, 10 EGTA, and 10 HEPES-CsOH at pH 7.3. All the experiments were recorded using a HEKA EPC9 amplifier. The holding potential was −80 mV. A 500 ms voltage ramp from −80 to 80 mV was applied to record TRPV1 currents. The sample frequency was 50 kHz, and the signals were filtered at 2.9 kHz using PatchMaster software. Data were analyzed using Clampfit v.7 software (Molecular Devices, San Jose, CA, USA). The extracellular solution and ligands were administered using a VC-8 perfusion system (~2 mL/s, Warner Instruments, Holliston, MA, USA). We used capsaicin (Cayman Chemicals, nº 92350), SB366791 (nº 11019, Cayman Chemicals, Ann Arbor, MI, USA), and RVD-Hp (Synbio Technologies, Monmouth Junction, NJ, USA). We used dimethyl sulfoxide (DMSO, Sigma-Aldrich, St. Louis, MO, USA) and untransfected cells as controls. Electrophysiological recordings were performed at room temperature.
(§3) The data were analyzed and plotted using GraphPad software v10.0.2. We used the Shapiro–Wilk test to determine the data distribution. […] Statistically significant values were considered when p values were * p < 0.05, ** p < 0.01, *** p < 0.001, and **** p < 0.0001.

The conditions of data set [4]: ref [106]; cited from earlier work. The source says: Chronic pain is often accompanied by the development of depression. […] However, a significant challenge in utilizing RVD-Hp as a therapeutic agent lies in the inherent sensitivity of peptides to enzymatic degradation. […] Developing carriers that can stabilize RVD-Hp and facilitate its delivery to the brain is essent ...

The target of data set [5] is T1, human TRPV1 channel. Briefly: Calcium imaging (Fura Red-AM), HEK293 cells transfected with hTRPV1-GFP. Format: cell-based. Conditions: pH 7.4, room temperature. As to the method:
as §1, §2, §3

The test system of data set [6] is rats. The settings on record: cited from earlier work. The text has this:
Despite this, evidence of a direct interaction between Hp and the TRPV1 channel is lacking. We speculate that Hp binds and activates TRPV1, possibly engaging the same binding site as RVD-Hp. […] Thus, RVD-Hp emerges and holds potential as a novel modulator for non-opioid analgesia and anxiety treatment. […] Moreover, since RVD-Hp effectively blocks the open TRPV1 channel, it presents a promising approach to inhibit the population of TRPV1 channels that are pathologically over-activated, thereby ... || (+ 1 further places)

Data set [7] has as its target human TRPV1 channel coupled to GFP in its C-terminus (human) (UniProt Q8NER1).

The term IC50 denotes the concentration at which inhibition is half-maximal.

T1 sequence (Q8NER1 whole entry): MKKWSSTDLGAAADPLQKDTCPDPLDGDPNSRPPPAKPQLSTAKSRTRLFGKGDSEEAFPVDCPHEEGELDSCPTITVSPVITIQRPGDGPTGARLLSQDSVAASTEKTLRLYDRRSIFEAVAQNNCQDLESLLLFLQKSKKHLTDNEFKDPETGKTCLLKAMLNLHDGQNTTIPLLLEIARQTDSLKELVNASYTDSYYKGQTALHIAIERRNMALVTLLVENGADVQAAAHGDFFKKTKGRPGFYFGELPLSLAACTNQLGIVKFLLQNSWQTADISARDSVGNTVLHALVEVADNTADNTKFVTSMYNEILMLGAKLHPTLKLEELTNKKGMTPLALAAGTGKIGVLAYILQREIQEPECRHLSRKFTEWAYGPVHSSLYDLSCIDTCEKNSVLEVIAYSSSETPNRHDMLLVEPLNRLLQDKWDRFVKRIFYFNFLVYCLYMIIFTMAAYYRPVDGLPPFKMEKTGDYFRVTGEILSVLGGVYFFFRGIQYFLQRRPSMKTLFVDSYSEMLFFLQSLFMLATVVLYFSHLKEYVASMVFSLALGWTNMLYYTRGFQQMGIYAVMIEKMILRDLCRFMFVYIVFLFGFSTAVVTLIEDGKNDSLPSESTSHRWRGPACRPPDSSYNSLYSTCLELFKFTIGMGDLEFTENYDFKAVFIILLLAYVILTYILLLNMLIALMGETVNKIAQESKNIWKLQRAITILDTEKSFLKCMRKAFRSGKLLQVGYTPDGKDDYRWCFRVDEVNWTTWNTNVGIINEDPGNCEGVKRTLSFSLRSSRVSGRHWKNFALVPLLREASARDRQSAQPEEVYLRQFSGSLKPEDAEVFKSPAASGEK
Sequence of human TRPV1 channel coupled to GFP in its C-terminus (human) (Q8NER1 whole entry): as above

In the case of `CCCCC/C=C\C/C=C\C/C=C\C/C=C\CCCC(=O)OC(CO)CO` [2-arachidonoylglycerol], the TRPV1 activation result in data set [1] was “activated”. Take `COc1cc(CNC(=O)CCCC/C=C/C(C)C)ccc1O` [CNTX-4975]: the Adverse effects entry in data set [2] was “nausea, hypotension, oral hypoesthesia, and erythema”.

`CC(C)C[C@H](NC(=O)[C@H](CC(C)C)NC(=O)[C@H](CCCCN)NC(=O)[C@H](Cc1ccccc1)NC(=O)[C@H](CC(N)=O)NC(=O)[C@@H](NC(=O)[C@@H]1CCCN1C(=O)[C@H](CC(=O)O)NC(=O)[C@@H](NC(=O)[C@@H](N)CCCNC(=N)N)C(C)C)C(C)C)C(=O)N[C@@H](CO)C(=O)N[C@@H](Cc1cnc[nH]1)C(=O)O` [RVD-Hp, RVD-hemopressin] (H-RVDPVNFKLLSH-OH) had an IC50 in data set [3] of 18.6 µM. In addition, in data set [4], the “Blood–brain barrier crossing” value is “cannot cross the blood–brain barrier” and the Stability in plasma result is reported as “low stability in plasma”. In the case of `COc1cccc(NC(=O)/C=C/c2ccc(Cl)cc2)c1` [SB366791], in data set [5] (1 µM Cap + 10 µM RVD-Hp (n: 60, * p < 0.032) or 10 µM SB366791 (n: 20, * p < 0.0113), comparison to Cap), the “Block of Cap-induced increase in intracellular Ca^2+ concentration” value is “partially blocked”. Besides, the “Effect on intracellular Ca^2+ of the compound alone” value in data set [5] (10 µM alone, no Cap, RVD-Hp n: 59, SB366791 n: 51) is recorded as “Neither 10 µM RVD-Hp nor 10 µM SB366791 augmented the intracellular Ca^2+”. In data set [3] (10 µM alone vs 1 µM Cap, ***** p < 0.0001), the “Current of compound alone compared with Cap-induced TRPV1 current” value is given as “significantly different from the Cap-induced TRPV1 current”. In addition, the “Current of compound alone compared with control” value in data set [3] (10 µM alone vs control (n: 7)) is recorded as “not different from the control”. Further, the “TRPV1 currents induced by the compound alone” value in data set [3] (10 µM alone, +80 mV, RVD-Hp n: 4, SB366791 n: 3, room temperature) is given as “Neither 10 µM RVD-Hp nor 10 µM SB366791 alone induced TRPV1 currents”. Also, the “Block of Cap-induced TRPV1 currents” value in data set [3] (10 µM with 1 µM Cap, +80 mV, RVD-Hp n: 4 (* p < 0.0214), SB366791 n: 4 (**** p < 0.0001), comparison to capsaicin, room temperature) is recorded as “blocked”. For the same molecule, the “Effect on Hp-induced anxious behavior” value in data set [6] (SB366791 on Hp-induced behavior, ref [8]) is on record as “mitigating impact; also recorded: mitigated”. For the same molecule, in data set [1] (requiring four molecules to induce channel closure, ref [88],[89]), the “TRPV1 binding mode of antagonists” value was “bind to the vanilloid pocket and compete with capsaicin”. `CCCCC/C=C\C/C=C\C/C=C\C/C=C\CCCC(=O)NCCO` [anandamide]: the TRPV1 activation result in data set [1] is given as “activated”. Take Phosphoinositide: the TRPV1 channel state entry in data set [1] was “favor the close state of the TRPV1 channel”. As for hemopressin, in data set [6] (rats, ref [8],[9]), the “Anxiety-like behavior (Hp in rats)” value was “induces anxiety-like behavior in rats”. Also, in data set [6] (rodent models, ref [8]), the Anxiety-/depressive-like behavior entry is “induce anxiogenic and depressive-like behaviors”. For lysophosphatidic acid, the TRPV1 channel state entry in data set [1] is recorded as “induces channel opening”.

As to oxytocin, in data set [1] (ref [67]), the “TRPV1 activation and nociception (oxytocin)” value is “activate the TRPV1 channel and modulate nociception”. On to phosphatidylinositol 4,5-biphosphate, for which the TRPV1 channel state entry in data set [1] is listed as “favor the close state of the TRPV1 channel”. For RVDPVNFKLLSH [RVD-hemopressin], the whole-cell voltage clamp of HEK293 cells expressing TRPV1-GFP: inhibition of the TRPV1 current induced by 1 µM capsaicin (at +80 mV), RVD-Hp at 1, 10, 20 and 50 µM; IC50 in data set [7] was determined as 18.6 µM.
